Converted amounts (≈) assume the structure as drawn. A value given as a limit tells only on which side of the number the result lay.

Results on four molecules are retold here after DBAASP.

Common to all, as to test: ≥ marks a high value that may be exact or a test limit, other limits are often not marked, values filed in µg/mL are converted to µM
Assay [1] has as its system Salmonella enterica MTCC 9844.
Assay [2] deals with Haemophilus influenzae MTCC 621.
The subject of assay [3] is Proteus vulgaris MTCC 1771.
For assay [4], the system named is Corynebacterium glutamicum MTCC 2679.
The subject of assay [5] is Staphylococcus haemolyticus MTCC 3383.
The subject of assay [6] is Klebsiella pneumoniae MTCC 7407.
In assay [7] the test system is Escherichia coli K12 MG1655.
Assay [8] deals with Staphylococcus aureus MTCC 3160.
The subject of assay [9] is Pseudomonas aeruginosa MTCC 3542.
The test system of assay [10] is Alcaligenes faecalis MTCC 1937.
In assay [11] the test system is Klebsiella oxytoca MTCC 2275.
Assay [12] deals with Citrobacter koseri MTCC 1657.
Assay [13] deals with Acinetobacter baumannii MTCC 9829.
Assay [14] has as its system Shigella flexneri MTCC 1457.
For assay [15], the system named is Enterococcus faecalis MTCC 439.
The subject of assay [16] is Klebsiella aerogenes MTCC 111.
Assay [17] concerns Salmonella enterica subsp. enterica serovar Typhimurium ATCC 14028.
Assay [18] has as its system Pluralibacter gergoviae MTCC 3826.
Assay [19] relates to Alkalihalobacillus alcalophilus MTCC 860.
Assay [20] concerns Vibrio cholerae MTCC 3904.
Assay [21] deals with Proteus mirabilis MTCC 3158.
Assay [22] deals with Citrobacter freundii MTCC 1658.
The test system of assay [23] is Stenotrophomonas maltophilia MTCC 1890.
The subject of assay [24] is Bordetella bronchiseptica MTCC 6837.
The subject of assay [25] is Shigella boydii MTCC 11947.
Assay [26] deals with Pseudomonas aeruginosa K799.
For a further assay, the system named is Listeria monocytogenes.
Assay [27] has as its system Staphylococcus aureus ATCC 25923.
The subject of assay [28] is Salmonella enterica subsp. enterica serovar Typhimurium ATCC 14028s.
The next assay has as its system Escherichia coli UB1005.
Assay [29] concerns Enterococcus faecalis ATCC 29212.
The test system of assay [30] is Staphylococcus epidermidis.
Assay [31] relates to Bacillus amyloliquefaciens ATCC 23842.
In assay [32] the test system is Proteus mirabilis ATCC 35659.
The subject of assay [33] is Bacillus subtilis ATCC 6051.
Assay [34] deals with Enterococcus faecium 5F-10.
In assay [35] the test system is Enterococcus faecalis 1F-1.
The test system of assay [36] is Bacillus licheniformis ATCC 14580.
Assay [37] deals with Bacillus cereus ATCC 14579.
The test system of assay [38] is Staphylococcus aureus ATCC 29213.
The subject of assay [39] is Pseudomonas aeruginosa PAO1.
For assay [40], the system named is Salmonella enterica ATCC H9812.
For assay [41], the system named is Escherichia coli ATCC 25922.

On to `CC(C)C[C@H](NC(=O)[C@H](Cc1cnc[nH]1)NC(=O)[C@H](CC(N)=O)NC(=O)[C@H](Cc1c[nH]c2ccccc12)NC(=O)[C@H](CC(=O)O)NC(=O)[C@@H](N)CCC(=O)O)C(=O)NCC(=O)N[C@@H](C)C(=O)N[C@@H](C)C(=O)N[C@H](C(=O)N[C@@H](Cc1cnc[nH]1)C(=O)N[C@H](C(=O)N[C@@H](CC(C)C)C(=O)N[C@@H](CCCCN)C(=O)N[C@@H](Cc1cnc[nH]1)C(=O)N[C@H](C(=O)N[C@@H](Cc1ccc(O)cc1)C(=O)N[C@@H](CCCCN)C(=O)O)C(C)C)[C@@H](C)O)C(C)C` [EDWNHLGAAVHTLKHVYK], for which the MIC in [1], in [2], in assay [3], in assay [4], in assay [5] and in assay [6] was at least 60.4 µM in each case. Besides, the MIC in assay [7], in assay [8], in assay [9], in assay [10], in assay [11] and in assay [12] was at least 60.4 µM in each case. In addition, the MIC in assay [13] was at least 60.4 µM; in assay [14], at least 60.4 µM; in assay [15], at least 60.4 µM; in assay [16], at least 60.4 µM; in [17], over 60.4 µM; in [18], at least 60.4 µM. In addition, the MIC in [19], in [20], in [21], in [22], in assay [23] and in assay [24] was at least 60.4 µM throughout. Moreover, the MIC in assay [25] is at least 60.4 µM.

Consider `CC(C)C[C@H](NC(=O)[C@H](Cc1cnc[nH]1)NC(=O)[C@H](CCCN=C(N)N)NC(=O)[C@H](C)NC(=O)[C@H](CCCN=C(N)N)NC(=O)[C@H](Cc1cnc[nH]1)NC(=O)[C@H](C)NC(=O)[C@@H](NC(=O)[C@H](Cc1cnc[nH]1)NC(=O)[C@H](CCCCN)NC(=O)[C@H](CC(C)C)NC(=O)[C@H](CO)NC(=O)[C@H](C)NC(=O)[C@H](CO)NC(=O)[C@H](CC(C)C)NC(=O)[C@@H](N)CCCCN)C(C)C)C(=O)N[C@@H](CO)C(=O)O` [KLSASLKHVAHRARHLS], for which the MIC in [1], in assay [2], in [3], in assay [4], in [5] and in assay [6] was at least 67 µM in each case. In addition, the MIC in assay [7], in [8], in assay [9], in assay [10], in assay [11] and in assay [12] was at least 67 µM throughout. In addition, the MIC in [13] is at least 67 µM; in assay [14] it was at least 67 µM; in assay [15] it was at least 67 µM; in assay [16], at least 67 µM; in assay [17] it was over 67 µM; in assay [18] it was at least 67 µM. Besides, the MIC in assay [19], in assay [20], in [21], in assay [22], in [23] and in assay [24] was at least 67 µM each time. Moreover, the MIC in [25] was at least 67 µM.

Consider `CC[C@H](C)[C@H](NC(=O)[C@H](CCCN=C(N)N)NC(=O)[C@H](CS)NC(=O)[C@H](CC(C)C)NC(=O)[C@H](CCCN=C(N)N)NC(=O)[C@@H](N)CCCN=C(N)N)C(=O)N[C@H](C(=O)N[C@H](C(=O)N[C@H](C(=O)N[C@@H](CCCN=C(N)N)C(=O)N[C@H](C(=O)N[C@@H](CS)C(=O)N[C@@H](CCCN=C(N)N)C(=O)N[C@@H](CCCN=C(N)N)C(=O)O)C(C)C)[C@@H](C)CC)C(C)C)C(C)C` [RRLCRIVVIRVCRR], for which the MIC is 8.9 µM (≈ 16 µg/mL) in [26]; 0.278 µM (≈ 0.5 µg/mL) in the assay on Listeria monocytogenes; over 35.6 µM in assay [27]; 17.8 µM (≈ 32 µg/mL) in assay [28]; 2.22 µM (≈ 4 µg/mL) against Escherichia coli UB1005; 2.22 µM (≈ 4 µg/mL) in [29]. For the same molecule, the MIC in assay [30] amounted to 2.22 µM (≈ 4 µg/mL).

With `CC(C)C[C@H](NC(=O)[C@H](CC(C)C)NC(=O)[C@H](CCC(=O)O)NC(=O)[C@H](CC(=O)O)NC(=O)[C@@H](NC(=O)[C@@H](N)CCCN=C(N)N)C(C)C)C(=O)N[C@@H](CO)C(=O)O` [RVDELLS], the MIC in [31], in [32], in [33], in assay [34], in assay [35] and in [36] was at least 154 µM each time. The MIC in assay [37] is at least 154 µM; in [38], over 154 µM; in [39], over 154 µM; in [40], at least 154 µM; in assay [41], over 154 µM.
